Assay results published in PMC5218480 (PLoS ONE, 2017).

Test system: MV-4-11 cells
Assay: Gene expression microarray analysis (Affymetrix PrimeView) and GSEA
Type: cell-based, human
Parameters: RFU PODN (11730768_x_at) / Fold change /veh PODN (11730768_x_at) / RFU LINC00158 (11744669_a_at) / Fold change /veh LINC00158 (11744669_a_at) / RFU DUSP10 (11751237_a_at) / Fold change /veh DUSP10 (11751237_a_at) / RFU ID3 (11757404_x_at) / Fold change /veh ID3 (11757404_x_at) / RFU PLEKHG5 (11737974_s_at) / Fold change /veh PLEKHG5 (11737974_s_at) / RFU LRRC4B (11730491_at) / Fold change /veh LRRC4B (11730491_at) / RFU GIMAP4 (11747438_a_at) / Fold change /veh GIMAP4 (11747438_a_at) / RFU KRT8 (11758183_x_at) / Fold change /veh KRT8 (11758183_x_at) / RFU CNN1 (11734310_a_at) / Fold change /veh CNN1 (11734310_a_at) / RFU VPS37D (11726825_at) / Fold change /veh VPS37D (11726825_at) / RFU C10orf10 (11716522_x_at) / Fold change /veh C10orf10 (11716522_x_at) / RFU KIR2DL2 /// KIR2DL4 /// KIR2DL5A /// KIR2DL5B /// KIR2DS1 /// KIR2DS2 /// KIR2DS3 /// KIR2DS4 /// KIR3DL3 /// KIR3DL3 /// KIR3DS1 (11738374_at) / Fold change /veh KIR2DL2 /// KIR2DL4 /// KIR2DL5A /// KIR2DL5B /// KIR2DS1 /// KIR2DS2 /// KIR2DS3 /// KIR2DS4 /// KIR3DL3 /// KIR3DL3 /// KIR3DS1 (11738374_at) / RFU C1QL1 (11718748_at) / Fold change /veh C1QL1 (11718748_at) / RFU TMPRSS4 (11747572_a_at) / Fold change /veh TMPRSS4 (11747572_a_at) / RFU HAMP (11756126_x_at) / Fold change /veh HAMP (11756126_x_at) / RFU RNFT2 (11725882_a_at) / Fold change /veh RNFT2 (11725882_a_at) / RFU NR4A2 (11747474_a_at) / Fold change /veh NR4A2 (11747474_a_at) / RFU ABCC12 (11746883_a_at) / Fold change /veh ABCC12 (11746883_a_at) / RFU TMEM136 (11760407_x_at) / Fold change /veh TMEM136 (11760407_x_at) / RFU CLDN22 /// WWC2 (11732394_at) / Fold change /veh CLDN22 /// WWC2 (11732394_at) / RFU HLA-DPB1 (11760878_x_at) / Fold change /veh HLA-DPB1 (11760878_x_at) / RFU SPINT1 (11716480_a_at) / Fold change /veh SPINT1 (11716480_a_at) / RFU GAP43 (11754022_s_at) / Fold change /veh GAP43 (11754022_s_at) / RFU A4GNT (11735810_at) / Fold change /veh A4GNT (11735810_at) / RFU PRB3 (11715151_x_at) / Fold change /veh PRB3 (11715151_x_at) / RFU TUBB4B (11761932_at) / Fold change /veh TUBB4B (11761932_at) / RFU CAPN14 (11732068_a_at) / Fold change /veh CAPN14 (11732068_a_at) / RFU TMCC2 (11721928_a_at) / Fold change /veh TMCC2 (11721928_a_at) / RFU IRGQ (11745062_a_at) / Fold change /veh IRGQ (11745062_a_at) / RFU FAM174B (11720279_a_at) / Fold change /veh FAM174B (11720279_a_at) / RFU TMPRSS4 (11748680_a_at) / Fold change /veh TMPRSS4 (11748680_a_at) / RFU FAM212B (11763350_a_at) / Fold change /veh FAM212B (11763350_a_at) / RFU PLEKHG5 (11743358_a_at) / Fold change /veh PLEKHG5 (11743358_a_at) / RFU ZSCAN30 (11745921_a_at) / Fold change /veh ZSCAN30 (11745921_a_at) / RFU CMKLR1 (11741424_a_at) / Fold change /veh CMKLR1 (11741424_a_at) / RFU LOC101060620 /// MAPK8IP1 (11723275_at) / Fold change /veh LOC101060620 /// MAPK8IP1 (11723275_at) / RFU SPTSSB (11747773_x_at) / Fold change /veh SPTSSB (11747773_x_at) / RFU PRSS12 (11739890_at) / Fold change /veh PRSS12 (11739890_at) / RFU BIN1 (11741810_x_at) / Fold change /veh BIN1 (11741810_x_at) / RFU WNT11 (11732464_a_at) / Fold change /veh WNT11 (11732464_a_at) / RFU C10orf10 (11716521_a_at) / Fold change /veh C10orf10 (11716521_a_at) / RFU C5orf56 (11738089_at) / Fold change /veh C5orf56 (11738089_at) / RFU CYB561 (11721691_x_at) / Fold change /veh CYB561 (11721691_x_at) / RFU ANKRD19P (11752326_a_at) / Fold change /veh ANKRD19P (11752326_a_at) / RFU OR2T12 /// OR2T33 /// OR2T8 (11738714_s_at) / Fold change /veh OR2T12 /// OR2T33 /// OR2T8 (11738714_s_at) / RFU VCAN (11748164_a_at) / Fold change /veh VCAN (11748164_a_at) / RFU JSRP1 (11732532_at) / Fold change /veh JSRP1 (11732532_at) / RFU KRTAP10-11 (11738290_x_at) / Fold change /veh KRTAP10-11 (11738290_x_at) / RFU MYO3A (11730013_a_at) / Fold change /veh MYO3A (11730013_a_at) / RFU EBF3 (11725865_a_at) / Fold change /veh EBF3 (11725865_a_at) / RFU CAMK2N1 (11719241_x_at) / Fold change /veh CAMK2N1 (11719241_x_at) / RFU C5orf56 (11738088_a_at) / Fold change /veh C5orf56 (11738088_a_at) / RFU OLFML3 (11715873_a_at) / Fold change /veh OLFML3 (11715873_a_at) / RFU LOC100653217 /// NTM (11731650_a_at) / Fold change /veh LOC100653217 /// NTM (11731650_a_at) / RFU MAPK11 (11762145_a_at) / Fold change /veh MAPK11 (11762145_a_at) / RFU FIZ1 (11724087_x_at) / Fold change /veh FIZ1 (11724087_x_at) / RFU OASL (11726364_x_at) / Fold change /veh OASL (11726364_x_at) / RFU SOX15 (11748057_x_at) / Fold change /veh SOX15 (11748057_x_at) / RFU CD79A (11719716_a_at) / Fold change /veh CD79A (11719716_a_at) / RFU HIST1H1D (11736915_at) / Fold change /veh HIST1H1D (11736915_at) / RFU CASKIN2 (11723855_a_at) / Fold change /veh CASKIN2 (11723855_a_at) / RFU LOC730098 (11760151_x_at) / Fold change /veh LOC730098 (11760151_x_at) / RFU OR4N2 (11742367_at) / Fold change /veh OR4N2 (11742367_at) / RFU PRRT2 (11749266_a_at) / Fold change /veh PRRT2 (11749266_a_at) / RFU SNX32 (11753110_a_at) / Fold change /veh SNX32 (11753110_a_at) / RFU CDHR5 (11726645_a_at) / Fold change /veh CDHR5 (11726645_a_at) / RFU RCAN1 (11760418_a_at) / Fold change /veh RCAN1 (11760418_a_at) / RFU FAM167A (11723789_a_at) / Fold change /veh FAM167A (11723789_a_at) / RFU FAM26E (11764081_at) / Fold change /veh FAM26E (11764081_at) / RFU ISYNA1 (11749810_s_at) / Fold change /veh ISYNA1 (11749810_s_at) / RFU ACY1 (11761880_at) / Fold change /veh ACY1 (11761880_at) / RFU 11764098_at / Fold change /veh 11764098_at / RFU SAMD14 (11745864_x_at) / Fold change /veh SAMD14 (11745864_x_at) / RFU NPB (11741838_a_at) / Fold change /veh NPB (11741838_a_at) / RFU TMPRSS6 (11731388_a_at) / Fold change /veh TMPRSS6 (11731388_a_at) / RFU KRTAP10-2 (11738614_at) / Fold change /veh KRTAP10-2 (11738614_at) / RFU ARHGAP8 /// PRR5-ARHGAP8 (11727945_x_at) / Fold change /veh ARHGAP8 /// PRR5-ARHGAP8 (11727945_x_at) / RFU KRTAP5-7 /// NADSYN1 (11734609_at) / Fold change /veh KRTAP5-7 /// NADSYN1 (11734609_at) / RFU RASL12 (11751679_a_at) / Fold change /veh RASL12 (11751679_a_at) / RFU CDKN2B (11736163_a_at) / Fold change /veh CDKN2B (11736163_a_at) / RFU PRF1 (11729649_at) / Fold change /veh PRF1 (11729649_at) / RFU, ZNF638 /// ZNF638-IT1 / Fold change vs veh, ZNF638 /// ZNF638-IT1 / RFU, PANK3 / Fold change vs veh, PANK3 / RFU, SH3YL1 / Fold change vs veh, SH3YL1 / RFU, ZEB2 / Fold change vs veh, ZEB2 / RFU, NRIP1 / Fold change vs veh, NRIP1 / RFU, PTTG1IP / Fold change vs veh, PTTG1IP / RFU, CAPN2 / Fold change vs veh, CAPN2 / RFU, MED14 / Fold change vs veh, MED14 / RFU, SNORA58 / Fold change vs veh, SNORA58 / RFU, C1orf63 / Fold change vs veh, C1orf63 / RFU, LRRFIP1 / Fold change vs veh, LRRFIP1 / RFU, NDUFAF7 / Fold change vs veh, NDUFAF7 / RFU, SLC12A2 / Fold change vs veh, SLC12A2 / RFU, IBTK / Fold change vs veh, IBTK / RFU, ESF1 / Fold change vs veh, ESF1 / Fold change vs veh, TMEM50B / RFU, TAOK1 / Fold change vs veh, TAOK1 / RFU, ACBD3 / Fold change vs veh, ACBD3 / RFU, TMA16 / Fold change vs veh, TMA16 / RFU, RWDD3 / Fold change vs veh, RWDD3 / RFU, BCAT1 / Fold change vs veh, BCAT1 / RFU, EDEM3 / Fold change vs veh, EDEM3 / RFU, TMEM33 / Fold change vs veh, TMEM33 / RFU, WDR75 / Fold change vs veh, WDR75 / RFU, AHCTF1 / Fold change vs veh, AHCTF1 / RFU, TFRC / Fold change vs veh, TFRC / RFU, ZDHHC17 / Fold change vs veh, ZDHHC17 / RFU, NOM1 / Fold change vs veh, NOM1 / RFU, ARL8B / Fold change vs veh, ARL8B / RFU, ZBTB11 / Fold change vs veh, ZBTB11 / RFU, TAMM41 / Fold change vs veh, TAMM41 / RFU, KIAA1704 /// LOC100996395 / Fold change vs veh, KIAA1704 /// LOC100996395 / RFU, ING1 / Fold change vs veh, ING1 / RFU, TRMT61B / Fold change vs veh, TRMT61B / RFU, FUBP3 / Fold change vs veh, FUBP3 / RFU, TP53 / Fold change vs veh, TP53 / RFU, TNKS2 / Fold change vs veh, TNKS2 / RFU, ZFP14 / Fold change vs veh, ZFP14 / RFU, ACTR2 / Fold change vs veh, ACTR2 / RFU, PPP3R1 / Fold change vs veh, PPP3R1 / RFU, PIK3R1 / Fold change vs veh, PIK3R1 / RFU, HNRNPA1 / Fold change vs veh, HNRNPA1 / RFU, RNF170 / Fold change vs veh, RNF170 / RFU, ZNF28 / Fold change vs veh, ZNF28 / RFU, RNGTT / Fold change vs veh, RNGTT / RFU, OGT / Fold change vs veh, OGT / RFU, BRD1 / Fold change vs veh, BRD1 / RFU, MARS / Fold change vs veh, MARS / RFU, ZNF655 / Fold change vs veh, ZNF655 / RFU, FAHD1 / Fold change vs veh, FAHD1 / RFU, BDP1 / Fold change vs veh, BDP1 / RFU, LRRCC1 / Fold change vs veh, LRRCC1 / RFU, ARID1A / Fold change vs veh, ARID1A / RFU, ZNF146 / Fold change vs veh, ZNF146 / RFU, ZNF330 / Fold change vs veh, ZNF330 / RFU, GPN3 / Fold change vs veh, GPN3 / RFU, C9orf123 / Fold change vs veh, C9orf123 / RFU, N4BP2L2 / Fold change vs veh, N4BP2L2 / RFU, ARFIP1 / Fold change vs veh, ARFIP1 / RFU, FAM179B / Fold change vs veh, FAM179B / RFU, BCL10 / Fold change vs veh, BCL10 / RFU, UHRF1BP1L / Fold change vs veh, UHRF1BP1L / RFU, BET1 / Fold change vs veh, BET1 / RFU, CNOT2 / Fold change vs veh, CNOT2 / RFU, ZNF268 / Fold change vs veh, ZNF268 / Fold change vs veh, ZNF507 / RFU, DGCR2 / Fold change vs veh, DGCR2 / RFU, WDSUB1 / Fold change vs veh, WDSUB1 / Fold change vs veh, HSP90B1 /// MIR3652 / RFU, ADSS / Fold change vs veh, ADSS / RFU, GK / Fold change vs veh, GK / RFU, ZNF148 / Fold change vs veh, ZNF148 / RFU, TAF9 / Fold change vs veh, TAF9 / RFU, SLC1A5 / Fold change vs veh, SLC1A5 / RFU, SLMO2 / Fold change vs veh, SLMO2 / RFU, ABCC4 / Fold change vs veh, ABCC4 / RFU, LOC101060439 /// RAP1B / Fold change vs veh, LOC101060439 /// RAP1B / RFU, RFX7 / Fold change vs veh, RFX7 / RFU, GTPBP10 / Fold change vs veh, GTPBP10 / RFU, CNEP1R1 / Fold change vs veh, CNEP1R1 / RFU, BIVM-ERCC5 /// ERCC5 / Fold change vs veh, BIVM-ERCC5 /// ERCC5 / RFU, ILF3 / Fold change vs veh, ILF3 / RFU 11762660_at / Fold change /veh 11762660_at / RFU VCAN (11757783_s_at) / Fold change /veh VCAN (11757783_s_at) / RFU DDX43 (11728927_at) / Fold change /veh DDX43 (11728927_at) / RFU KRT8 (11758188_x_at) / Fold change /veh KRT8 (11758188_x_at) / RFU NKD1 (11759106_at) / Fold change /veh NKD1 (11759106_at) / RFU SRD5A1 (11742802_a_at) / Fold change /veh SRD5A1 (11742802_a_at) / RFU TPSAB1 /// TPSB2 (11721975_s_at) / Fold change /veh TPSAB1 /// TPSB2 (11721975_s_at) / RFU GSTM3 (11746129_a_at) / Fold change /veh GSTM3 (11746129_a_at) / RFU IL23R (11737362_x_at) / Fold change /veh IL23R (11737362_x_at) / RFU TMEM51 (11727254_a_at) / Fold change /veh TMEM51 (11727254_a_at) / RFU PIWIL2 (11732686_x_at) / Fold change /veh PIWIL2 (11732686_x_at) / RFU ORM1 (11744905_x_at) / Fold change /veh ORM1 (11744905_x_at) / RFU CCDC152 (11743942_at) / Fold change /veh CCDC152 (11743942_at) / RFU ECM1 (11717891_a_at) / Fold change /veh ECM1 (11717891_a_at) / RFU IL23R (11748794_a_at) / Fold change /veh IL23R (11748794_a_at) / RFU TNFAIP8L3 (11732012_x_at) / Fold change /veh TNFAIP8L3 (11732012_x_at) / RFU MBOAT4 (11741988_at) / Fold change /veh MBOAT4 (11741988_at) / RFU 11764193_at / Fold change /veh 11764193_at / RFU TMEM53 (11763286_at) / Fold change /veh TMEM53 (11763286_at) / RFU MAGEB2 (11727129_at) / Fold change /veh MAGEB2 (11727129_at) / RFU TMEM200A (11744735_a_at) / Fold change /veh TMEM200A (11744735_a_at) / RFU CCDC152 (11751479_a_at) / Fold change /veh CCDC152 (11751479_a_at) / RFU FAM211A (11726209_a_at) / Fold change /veh FAM211A (11726209_a_at) / RFU RGS16 (11746705_a_at) / Fold change /veh RGS16 (11746705_a_at) / RFU VCAN (11755009_s_at) / Fold change /veh VCAN (11755009_s_at) / RFU RHOB (11743442_s_at) / Fold change /veh RHOB (11743442_s_at) / RFU RGS16 (11720943_a_at) / Fold change /veh RGS16 (11720943_a_at) / RFU RGS16 (11720944_at) / Fold change /veh RGS16 (11720944_at) / RFU, VPS4B / Fold change vs veh, VPS4B / RFU, CREB1 / Fold change vs veh, CREB1 / RFU, DNAJC13 / Fold change vs veh, DNAJC13 / RFU, GNAQ / Fold change vs veh, GNAQ / RFU, CDK5R1 / Fold change vs veh, CDK5R1 / RFU, ZRANB3 / Fold change vs veh, ZRANB3 / RFU, CUL4A / Fold change vs veh, CUL4A / RFU, CCNY / Fold change vs veh, CCNY / RFU, UFL1 / Fold change vs veh, UFL1 / RFU, COG3 / Fold change vs veh, COG3 / RFU, DIAPH2 / Fold change vs veh, DIAPH2 / RFU, SKA2 / Fold change vs veh, SKA2 / RFU, AFF3 / Fold change vs veh, AFF3 / RFU, LMF1 / Fold change vs veh, LMF1 / RFU, IPO11 / Fold change vs veh, IPO11 / RFU, DFFB / Fold change vs veh, DFFB / RFU, FOXP1 / Fold change vs veh, FOXP1 / RFU, CARD8 / Fold change vs veh, CARD8 / RFU, STRN3 / Fold change vs veh, STRN3 / RFU, ADK / Fold change vs veh, ADK / RFU, RASSF2 / Fold change vs veh, RASSF2 / RFU, WIPF1 / Fold change vs veh, WIPF1 / RFU, LARP1B / Fold change vs veh, LARP1B / RFU, RASA1 / Fold change vs veh, RASA1 / RFU, RB1 / Fold change vs veh, RB1 / RFU, PPFIA1 / Fold change vs veh, PPFIA1 / RFU, MAT2A / Fold change vs veh, MAT2A / RFU, CCT5 / Fold change vs veh, CCT5 / RFU, WDR92 / Fold change vs veh, WDR92 / RFU, CUX1 / Fold change vs veh, CUX1 / RFU, TTC7A / Fold change vs veh, TTC7A / RFU, TMEM135 / Fold change vs veh, TMEM135 / RFU, DEPTOR / Fold change vs veh, DEPTOR / RFU, CPM / Fold change vs veh, CPM / RFU, DNAJB6 / Fold change vs veh, DNAJB6 / RFU, CACNA2D3 / Fold change vs veh, CACNA2D3 / RFU, DTX4 / Fold change vs veh, DTX4 / RFU, TFCP2 / Fold change vs veh, TFCP2 / RFU, GMCL1 /// GMCL1P1 / Fold change vs veh, GMCL1 /// GMCL1P1 / RFU, AEBP2 / Fold change vs veh, AEBP2 / RFU, SNHG1 /// SNORD22 /// SNORD25 /// SNORD26 /// SNORD27 /// SNORD28 /// SNORD29 /// SNORD31 / Fold change vs veh, SNHG1 /// SNORD22 /// SNORD25 /// SNORD26 /// SNORD27 /// SNORD28 /// SNORD29 /// SNORD31 / Fold change (Aza/veh), C12orf56 (ProbeSet 11735607_a_at) / Fold change (ACY-1035/veh), C12orf56 (ProbeSet 11735607_a_at) / Fold change (Aza/veh), FGFR1OP (ProbeSet 11751329_s_at) / Fold change (ACY-1035/veh), FGFR1OP (ProbeSet 11751329_s_at) / Fold change (Aza/veh), VPS36 (ProbeSet 11739960_a_at) / Fold change (ACY-1035/veh), VPS36 (ProbeSet 11739960_a_at) / RFU SYPL1 (11715823_x_at) / Fold change /veh SYPL1 (11715823_x_at) / RFU IGFBP7 (11715501_s_at) / Fold change /veh IGFBP7 (11715501_s_at) / RFU REEP3 (11722064_at) / Fold change /veh REEP3 (11722064_at) / RFU IGLL1 (11728026_x_at) / Fold change /veh IGLL1 (11728026_x_at): dose or concentration left out as unconfirmed
Details: ProbeSet 11733176_x_at; LIST B

SMILES: Nc1ncn([C@@H]2O[C@H](CO)[C@@H](O)[C@H]2O)c(=O)n1 [azacitidine]
- Fold change vs veh, ZNF507: 0.97
